These are literature values, as cited in patent US20200215022A1, “NOVEL CANNABINOID COMPOSITIONS AND METHODS OF TREATING PEDIATRIC EPILEPSY” (TILRAY, INC., priority 2016, published 2020).

Molecules are shown by their SMILES.

Among the targets are CYP2C19 (Homo sapiens, UniProt P33261); CYP3A4 (Homo sapiens, UniProt P08684); CYP2C9 (Homo sapiens, UniProt P11712).
For a further data set, the target named is T1, CYP2B6 (Homo sapiens, UniProt P20813).
T1 sequence (P20813 1-491): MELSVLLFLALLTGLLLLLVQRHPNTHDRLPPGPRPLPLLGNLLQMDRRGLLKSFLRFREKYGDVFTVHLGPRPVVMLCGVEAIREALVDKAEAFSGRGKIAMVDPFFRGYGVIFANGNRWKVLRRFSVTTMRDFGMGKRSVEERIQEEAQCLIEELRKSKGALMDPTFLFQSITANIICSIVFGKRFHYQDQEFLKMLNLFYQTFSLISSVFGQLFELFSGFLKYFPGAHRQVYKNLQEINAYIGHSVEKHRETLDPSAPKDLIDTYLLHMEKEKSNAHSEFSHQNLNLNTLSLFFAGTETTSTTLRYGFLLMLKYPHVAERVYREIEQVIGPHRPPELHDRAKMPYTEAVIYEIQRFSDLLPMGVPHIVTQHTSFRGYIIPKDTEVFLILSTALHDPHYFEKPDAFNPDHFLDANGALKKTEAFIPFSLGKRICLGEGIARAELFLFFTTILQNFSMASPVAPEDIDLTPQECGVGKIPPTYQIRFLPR

The target of the next data set is CB2 (Homo sapiens, UniProt P34972). As to conditions: Pacher et al., 2006.
Chain of CB2 (P34972 whole entry, species assumed): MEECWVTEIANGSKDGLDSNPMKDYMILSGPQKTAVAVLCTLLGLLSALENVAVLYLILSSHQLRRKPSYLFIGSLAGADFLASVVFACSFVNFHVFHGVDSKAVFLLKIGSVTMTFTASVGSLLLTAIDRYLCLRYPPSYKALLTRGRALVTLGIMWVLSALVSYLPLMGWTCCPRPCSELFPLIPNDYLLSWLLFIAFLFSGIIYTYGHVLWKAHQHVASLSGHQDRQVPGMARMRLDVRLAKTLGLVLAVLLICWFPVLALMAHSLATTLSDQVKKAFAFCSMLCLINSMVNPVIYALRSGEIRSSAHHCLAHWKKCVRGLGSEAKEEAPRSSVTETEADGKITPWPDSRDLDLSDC
For data set [1] the following is noted: in vivo.
The subject of a further data set is sodium channel. To be noted: human and animal models.
The target in another data set is T2, CYP2C8 (Homo sapiens, UniProt P10632).
T2 sequence (P10632 1-490): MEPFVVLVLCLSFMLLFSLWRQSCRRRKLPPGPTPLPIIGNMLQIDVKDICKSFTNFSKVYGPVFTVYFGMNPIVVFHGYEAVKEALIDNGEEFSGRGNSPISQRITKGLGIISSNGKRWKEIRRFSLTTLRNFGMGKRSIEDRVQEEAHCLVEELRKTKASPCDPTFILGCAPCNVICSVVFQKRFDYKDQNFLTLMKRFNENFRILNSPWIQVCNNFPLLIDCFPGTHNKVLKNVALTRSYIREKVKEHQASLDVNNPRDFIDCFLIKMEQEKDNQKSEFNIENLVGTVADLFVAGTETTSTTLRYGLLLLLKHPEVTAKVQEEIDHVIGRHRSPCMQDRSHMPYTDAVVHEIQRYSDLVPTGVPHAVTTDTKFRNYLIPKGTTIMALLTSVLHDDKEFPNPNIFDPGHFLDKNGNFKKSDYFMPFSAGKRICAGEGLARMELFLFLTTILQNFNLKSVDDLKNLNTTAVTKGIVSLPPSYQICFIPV

Chain of CYP2C9 (P11712 whole entry): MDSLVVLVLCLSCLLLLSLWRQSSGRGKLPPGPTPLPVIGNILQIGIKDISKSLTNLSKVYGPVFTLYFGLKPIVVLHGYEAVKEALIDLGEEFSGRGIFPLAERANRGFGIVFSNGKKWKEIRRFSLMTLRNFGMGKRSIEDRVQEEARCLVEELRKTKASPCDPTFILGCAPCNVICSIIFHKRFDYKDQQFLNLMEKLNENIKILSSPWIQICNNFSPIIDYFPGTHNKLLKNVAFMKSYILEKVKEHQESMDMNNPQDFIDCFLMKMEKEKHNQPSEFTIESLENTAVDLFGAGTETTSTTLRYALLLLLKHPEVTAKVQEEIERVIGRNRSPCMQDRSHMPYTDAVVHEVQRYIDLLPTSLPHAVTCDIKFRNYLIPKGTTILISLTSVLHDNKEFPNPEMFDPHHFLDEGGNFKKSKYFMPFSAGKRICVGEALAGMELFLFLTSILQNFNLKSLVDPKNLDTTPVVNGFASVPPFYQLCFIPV
Chain of CYP2C19 (P33261 whole entry): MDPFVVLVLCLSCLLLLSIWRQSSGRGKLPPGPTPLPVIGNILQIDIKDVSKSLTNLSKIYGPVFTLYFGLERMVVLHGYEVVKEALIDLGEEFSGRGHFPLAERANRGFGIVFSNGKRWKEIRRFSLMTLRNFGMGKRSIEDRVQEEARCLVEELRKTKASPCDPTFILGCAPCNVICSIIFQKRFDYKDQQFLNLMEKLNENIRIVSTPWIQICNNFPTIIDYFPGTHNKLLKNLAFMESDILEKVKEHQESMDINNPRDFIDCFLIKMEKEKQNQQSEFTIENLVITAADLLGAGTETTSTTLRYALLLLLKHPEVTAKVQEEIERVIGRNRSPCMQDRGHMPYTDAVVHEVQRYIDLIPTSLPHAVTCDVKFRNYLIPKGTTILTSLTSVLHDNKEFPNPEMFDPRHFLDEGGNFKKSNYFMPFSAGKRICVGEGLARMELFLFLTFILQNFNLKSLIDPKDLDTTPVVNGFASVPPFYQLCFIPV
Chain of CYP3A4 (P08684 whole entry): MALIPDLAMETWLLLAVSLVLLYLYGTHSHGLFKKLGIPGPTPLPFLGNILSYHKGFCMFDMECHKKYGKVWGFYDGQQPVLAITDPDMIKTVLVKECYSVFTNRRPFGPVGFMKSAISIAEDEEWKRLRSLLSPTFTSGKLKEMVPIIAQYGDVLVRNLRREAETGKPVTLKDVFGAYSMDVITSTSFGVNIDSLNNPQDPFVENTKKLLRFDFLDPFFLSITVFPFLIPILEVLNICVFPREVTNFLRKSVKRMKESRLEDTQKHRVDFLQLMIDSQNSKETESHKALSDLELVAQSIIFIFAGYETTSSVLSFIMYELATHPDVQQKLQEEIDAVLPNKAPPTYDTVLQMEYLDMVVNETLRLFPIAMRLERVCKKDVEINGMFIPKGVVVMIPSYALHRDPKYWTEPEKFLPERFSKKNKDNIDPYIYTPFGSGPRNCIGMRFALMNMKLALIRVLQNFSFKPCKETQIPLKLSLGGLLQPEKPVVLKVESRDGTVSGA

In the case of `C=C(C)[C@@H]1CCC(C)=C[C@H]1c1c(O)cc(CCCCC)cc1O` [CBD, cannabidiol], the Lipid solubility result is reported as “highly lipid soluble”. Besides, the “Inhibition of CYP2C19” value at CYP2C19 was “potent inhibitor”. For the same compound, the “Inhibition of CYP3A4” value at CYP3A4 is “potent inhibitor”. On CYP2C9, the “Inhibition of CYP2C9” value is recorded as “potent inhibitor”. Also, the “Inhibition of CYP2B6” value on CYP2B6 is “potent inhibitor”. On CB2, the “Affinity for cannabinoid receptor CB2” value is given as “does not appear to have a great affinity”. In addition, in data set [1], the Route of excretion result was “excreted in the urine and feces”; the “Time CBD levels are detected post administration” value is recorded as “up to 8 hours”. For the same compound, in the data set with sodium channel, the Sodium channel block entry is “potent sodium channel blockers”. Moreover, the “Inhibition of CYP2C8” value at CYP2C8 is on record as “potent inhibitor”.

With `CCCCCc1cc(O)c(C/C=C(\C)CCC=C(C)C)c(O)c1` [CBG, cannabigerol], the Sodium channel block result in the data set on sodium channel is “potent sodium channel blockers”.
